# Where “and” joins values, the source holds several entries; their conditions need not be identical. Equal entries are not always repeated. Where two headings read alike, the source gives them in different places.
# Experiments:
# [1] = MTT cell proliferation assay (cytotoxicity), HepG2; type: cell-based; details: human, HepG2 cells, 72 h incubation, read-out: LC50, HepG2
# Description: The results are expressed as LC50 values. […] Cytotoxicity was determined using the MTT assay.
# [2] = MTT cell proliferation assay (cytotoxicity), MDCKIIwt; type: cell-based; details: dog, MDCKII wild-type cells, 72 h incubation, read-out: LC50, MDCKII
# Description: (§1) Cytotoxicity of ezetimibe 1 and of newly synthesized amides 5a–f was determined using MTT cell proliferation assay in Madine-Darby Canine Kidney II wild-type (MDCKIIwt), MDCKII cells stably expressing hNPC1L1 (hNPC1L1/MDCKII) and HepG2 cell lines (Table 1). hNPC1L1/MDCKII were used as a pharmacologically validated model for investigating NPC1L1-mediated cholesterol uptake.[21] LC50 values were determined and values higher than 100 μM were considered non-toxic.
# (§2) Madin-Darby Canine Kidney II wild type (MDCKIIwt), MDCKII cells stably expressing human NPC1L1 (hNPC1L1/MDCKII), and HepG2 cells were cultured in Dulbecco’s Modified Eagle Medium (DMEM) (Gibco,® Life Technologies, Carlsbad, USA) containing 10% fetal calf serum (FCS) (Sigma–Aldrich, Munich, Germany), 1% penicillin/streptomycin in a humidified 5% CO2 incubator at 37 °C. MDCKIIwt cells were stably transfected with human NPC1L1 using Lipofectamine LTX (Life Technologies, Carlsbad, USA) according to the manufacturer’s protocol. After 48 h, selection with 1000 μg/mL G418 (Sigma–Aldrich, Munich, Germany) was started. Selection lasted for two weeks, after which transfected cells were maintained in the medium containing 500 μg/mL G418.
# (§3) MDCKIIwt, hNPC1L1/MDCKII, and HepG2 cells were plated in 96-well microtiter plates at 2 × 10^4 cells/mL on day 0. On the next day, tested compounds were added to obtain five 10-fold consecutive dilutions in range from 10^−8 to 10^−4 mol/L, and incubated for further 72 h. Cytotoxicity of the compounds was determined by the MTT cell proliferation assay (Sigma–Aldrich, Munich, Germany).[22] The results are expressed as LC50 values. The absorbance (A) was measured on a microplate reader at 570 nm. Cytotoxicity of each compound was tested in quadruplicate in three independent experiments. Furthermore, toxicity of the compounds in combination with micelles was tested using the same method. MDCKIIwt and hNPC1L1/MDCKII were plated in 96-well microtiter plates (150 μL medium/well) at 2 × 10^5 cells/mL 24 h before the experiment. Micelles were prepared according to the modified method described by Field et al.[23] In brief, micellar components were mixed with DMEM supplemented with 10% FCS to obtain final concentrations of 0.25 mM oleic acid, 50 μM cholesterol, 10 μM compactin, 50 μM mevalonate, 5 mM Na-taurocholate (Sigma–Aldrich, Munich, Germany) and sonicated. Tested compounds (25, 50, 100, 150, 200 μM) were added to the prepared medium, vortexed and applied to the cells for 1 h. Cytotoxicity was determined using the MTT assay.
# hNPC1L1/MDCKII cells [3] = experiment: In vitro [3H]cholesterol uptake; type: cell-based, Canine; details: for IC50: Canis lupus familiaris, MDCK-II, read-out: IC50, inhibition of cholesterol uptake; for maximum inhibition of cholesterol uptake: compared to untreated cells
# Description: Ezetimibe analogs 5a–f were tested for inhibition of cholesterol uptake in hNPC1L1/MDCKII cells (Fig. 3).
# The results are expressed as percentage of inhibition compared to untreated cells and represent mean ± SEM of three independent experiments. *p <0.05, **p <0.01, ***p <0.001 determined by one-way ANOVA followed by Dunnett’s test.
# In vitro cholesterol uptake was determined as described by Dražić et al.[19] In brief, hNPC1L1/MDCKII cells were plated in 24-well plates at 5 × 10^5 cells/mL medium (500 μL medium/well) in DMEM supplemented with 5% LPDS 24 h before the treatment. Cells were washed once with PBS and medium containing micelles, [^3H]cholesterol (0.18 μCi/mL medium) ([1,2-3H(N)] cholesterol, 1 mCi/mL, ARC Inc., St. Louis, USA) and tested compounds in concentrations of 0–200 μM was added. After 1 h, the medium was removed, cells were washed three times with ice-cold 0.2% free fatty acid-free BSA and lysed. Radioactivity in the lysate (100 μL) was measured by liquid scintillation counting. Protein content in lysates was determined with the DC Protein Assay (Bio-Rad, Hercules, USA). The results were expressed as percentage of inhibition compared to untreated cells in CPM/mg protein. Activity of each compound was tested in duplicate in three independent experiments.
# in vitro = details: dog
# Description: as §1, §2, §3
# C57BL/6 mice = experiment: In vivo acute cholesterol absorption; details: 20 mg/kg/day for 2 days, oral gavage, reduction in [3H]cholesterol radioactivity relative to vehicle, mean ± SEM
# Description: Finally, we tested the in vivo inhibition of cholesterol absorption of ezetimibe 1 and 4-F-phenyl representatives (5b,d,f) from each group of ezetimibe analogs. For in vivo testing, we used the compounds with lower IC50 values and higher inhibition of cholesterol uptake as determined in vitro. For that purpose, mice were treated with 20 mg/kg/day of each compound for two days, gavaged with [^3H]cholesterol and radioactivity was measured in the liver and three equal parts of the small intestine (duodenum, jejunum, ileum). The results are expressed as percent reduction in radioactivity relative to vehicle (Table 2). […] In the three parts of the small intestine (duodenum, jejunum, ileum), ezetimibe 1 lowered [^3H]cholesterol by 60%, 52%, and 44%, respectively.
# 26 weeks old male C57BL/6 mice (3–4 per group) were maintained in a temperature-controlled environment under a 12 h light/12 h dark cycle with free access to chow diet (Altromin Spezialfutter GmbH, Lage, Germany) and water. For two days, mice were treated with ezetimibe, tested compounds (20 mg/kg/day) or vehicle. For the treatment, compounds were dissolved in corn oil and administered to mice (100 μL) after 4 h fasting by oral gavage. On day 2, 90 min after compound administration, mice were gavaged with corn oil (200 μL) containing [^3H]cholesterol (2 μCi) ([1,2-3H(N)] cholesterol, 1 mCi/mL, ARC Inc., St. Louis, USA). Liver and small intestines were collected 4 h post-gavage and cholesterol uptake and absorption were determined as previously described.[24] Animal experiments were performed according to the standards set by the Austrian Federal Ministry of Science, Research, and Economy, Vienna, Austria.
# hNPC1L1/MDCKII cells [4] = system: hNPC1L1/MDCKII cells; set-up: method as in PMID 25305716; details: determined previously, cited from earlier work
# [5] = hNPC1L1/MDCKII cells, 1 h, micelles with [3H]cholesterol
# [6] = MDCKII cells stably expressing human NPC1L1 (hNPC1L1/MDCKII)
# [7] = listed as ezetimibe 1, 20 mg/kg/day
Structure (SMILES),CC50 at 72 h [1],CC50 at 72 h [2],IC50 (hNPC1L1/MDCKII cells [3]; [5]),concentration at which maximum inhibition of cholesterol uptake was reached (hNPC1L1/MDCKII cells [3]; hNPC1L1/MDCKII cells),maximum inhibition of cholesterol uptake (hNPC1L1/MDCKII cells [3]; hNPC1L1/MDCKII cells),CC50 at 72 h (in vitro; [6]),"In vivo inhibition of cholesterol absorption, Duodenum (C57BL/6 mice; 20 mg/kg/day)","In vivo inhibition of cholesterol absorption, Ileum (C57BL/6 mice; 20 mg/kg/day)","In vivo inhibition of cholesterol absorption, Jejunum (C57BL/6 mice; 20 mg/kg/day)","In vivo inhibition of cholesterol absorption, Liver (C57BL/6 mice; 20 mg/kg/day)","In vivo inhibition of cholesterol absorption, Duodenum (C57BL/6 mice; [7])","In vivo inhibition of cholesterol absorption, Ileum (C57BL/6 mice; [7])","In vivo inhibition of cholesterol absorption, Jejunum (C57BL/6 mice; [7])","In vivo inhibition of cholesterol absorption, Liver (C57BL/6 mice; [7])","IC50 (hNPC1L1/MDCKII cells [4]; read-out: IC50, inhibition of cholesterol uptake)",maximum inhibition of cholesterol uptake (hNPC1L1/MDCKII cells [4]),IC50 (hNPC1L1/MDCKII cells [3]),CC50 at 72 h (in vitro)
"O=C(/C=C/c1ccccc1)N[C@H]1C(=O)N(c2ccc(F)cc2)[C@@H]1c1ccc(O)cc1 [Compound 5a, (E)-N-((2R,3R)-1-(4-Fluorophenyl)-2-(4-hydroxyphenyl)-4-oxoazetidin-3-yl)cinnamamide]",63.3 µM,66.5 µM,20 µM,60 µM,~ 45%,65.1 µM,–,–,–,–,–,–,–,–,–,–,–,–
"O=C1[C@H](CC[C@H](O)c2ccc(F)cc2)[C@@H](c2ccc(O)cc2)N1c1ccc(F)cc1 [Compound 1, Ezetimibe, reference compound]",69.7 µM,> 100 µM,–,–,–,62.3 µM,60 ± 6 %,44 ± 11%,52 ± 3 %,53 ± 2 %,60%,44%,52%,53%,24 µM,40%,–,–
"O=C(Cc1ccccc1)N[C@H]1C(=O)N(c2ccc(F)cc2)[C@@H]1c1ccc(O)cc1 [Compound 5c, N-((2R,3R)-1-(4-Fluorophenyl)-2-(4-hydroxyphenyl)-4-oxoazetidin-3-yl)-2-phenylacetamide]",> 100 µM,> 100 µM,88 µM,–,~ 40%,> 100 µM,–,–,–,–,–,–,–,–,–,–,–,–
"O=C(N[C@H]1C(=O)N(c2ccc(F)cc2)[C@@H]1c1ccc(O)cc1)c1ccccc1 [Compound 5e, N-((2R,3R)-1-(4-Fluorophenyl)-2-(4-hydroxyphenyl)-4-oxoazetidin-3-yl)benzamide]",67.6 µM,91.2 µM,70 µM,–,–,68.3 µM,–,–,–,–,–,–,–,–,–,–,–,–
"O=C(N[C@H]1C(=O)N(c2ccc(F)cc2)[C@@H]1c1ccc(O)cc1)c1ccc(F)cc1 [Compound 5f, 4-Fluoro-N-((2R,3R)-1-(4-fluorophenyl)-2-(4-hydroxyphenyl)-4-oxoazetidin-3-yl)benzamide]",71.9 µM,78.6 µM,54 µM,–,–,64.7 µM,42% and 42 ± 2%,28% and 28 ± 7%,32% and 32 ± 6%,37% and 37 ± 8 %,–,–,–,–,–,–,–,–
"O=C(/C=C/c1ccc(F)cc1)N[C@H]1C(=O)N(c2ccc(F)cc2)[C@@H]1c1ccc(O)cc1 [Compound 5b, (E)-3-(4-Fluorophenyl)-N-((2R,3R)-1-(4-fluorophenyl)-2-(4-hydroxyphenyl)-4-oxoazetidin-3-yl)acrylamide]",57.5 µM,64 µM,–,60 µM,~ 45%,–,27% and 27 ± 10%,37% and 37 ± 15%,35% and 35 ± 8%,49% and 49 ± 5 %,–,–,–,–,–,–,18 µM,63.3 µM
"O=C(Cc1ccc(F)cc1)N[C@H]1C(=O)N(c2ccc(F)cc2)[C@@H]1c1ccc(O)cc1 [Compound 5d, 2-(4-Fluorophenyl)-N-((2R,3R)-1-(4-fluorophenyl)-2-(4-hydroxyphenyl)-4-oxoazetidin-3-yl)acetamide]",> 100 µM,> 100 µM,46 µM,–,~ 40%,> 100 µM,15% and 15 ± 12%,24% and 24 ± 13%,14% and 14 ± 20%,39% and 39 ± 11 %,–,–,–,–,–,–,–,–

# Reference: publication PMC4414353, “Synthesis and evaluation of novel amide amino-β-lactam derivatives as cholesterol absorption inhibitors” (Bioorganic & medicinal chemistry, 2015)
